This is an account of results in patent US8829014B2, “Thiazole and thiophene analogues, and their use in treating autoimmune diseases and cancers” (Board of Supervisors of Louisiana State University and …, priority 2006, dated 2014).

For one assay, the system named is carageenan-induced edema. Nature of the assay: Carrageenan-induced rat paw edema test (anti-inflammatory activity). The assay is classed as in vivo, Sprague-Dawley rats. As to conditions: rat paw edema, 50 mg/kg, reading 3 hours after carrageenan, [(Control−Test)/Control]×100%; for inhibition in vivo at 50 mg/kg: Rattus norvegicus, po, 3 h, read-out: % Protection P. Put shortly:
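Sprague-Dawley rats (male and female, 150-250 g), fasted 18 h, given compound orally at 50 mg/kg in 0.1% sodium CMC (alternatively i.v., s.c. or i.p.). 1% carrageenan injected sub-plantar in right hind paw 1 h later. Paw displacement read again 3 h later; % protection = [(Control−Test)/Control]×100 versus saline control.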
A general note: Carrageenan injected into the paw causes an acute inflammation.

For a further assay, the system named is NF-κB. The assay is described as follows: TNF-α-induced NF-κB-dependent luciferase expression in HEK cells. The assay is classed as cell-based. The note with it: luciferase in HEK/NF-κB cells, as described in Example 398; for inhibition at 1 µM: Homo sapiens, HEK293, 1 uM, read-out: NFkB inhibition @ 1 uM.
The next assay relates to AP-1. The assay is described as follows: PMA-induced AP-1 luciferase expression in HEK cells. The assay is classed as cell-based. As to conditions: luciferase in HEK/AP-1 cells, as described in Example 398; for inhibition at 1 µM: AP1, 1 uM.

One may read the inhibition as the change of the read-out against control, counted positive when it falls. As to `O=C(c1ccc(Cl)cc1)c1sc(N2CCN(C(=O)c3ccco3)CC2)nc1-c1ccco1` [Example 373, (4-Chloro-phenyl)-{2-[4-(furan-2-carbonyl)-piperazin-1-yl]-4-furan-2-yl-thiazol-5-yl}-methanone], in the assay on carageenan-induced edema, the inhibition in vivo at 50 mg/kg was found to be 42%. Further, the inhibition at 1 µM in the assay with NF-κB is -6.07%; with AP-1 it was 26.9%.
Regarding `Cc1nc(Nc2ccccc2)sc1C(=O)c1sc(Nc2ccccc2)nc1C` [Example 119, Bis-(4-methyl-2-phenylamino-thiazole-5-yl)-methanone], in the assay on carageenan-induced edema, the inhibition in vivo at 50 mg/kg was 45.5%. The inhibition at 1 µM was found to be 8.39% in the assay on NF-κB and 26% in the assay on AP-1.
With “2-[4-(4-Methylsulfanyl-phenyl)-5-morpholin-4-yl-thiophen-2-yl]-3-phenyl-3H-quinazolin-4-one [Example 276]”, in the assay on carageenan-induced edema, the “% Protection P” value is 49%. Besides, the “NFkB inhibition @ 1 uM” value with NF-κB is recorded as −10. Also, the “AP-1 inhibition @ 1 uM” value in the assay on AP-1 was −17.
Taken in the same sequence, the figures for `CC(=O)Nc1ccc(-c2cc(-c3nc4ccccc4c(=O)n3-c3ccc(Cl)cc3)sc2N2CCOCC2)cc1` [Example 311] were 28%, 0 and 17.
As to `O=C(c1cccnc1)c1sc(N2CCN(C(=O)c3ccco3)CC2)nc1-c1ccco1` [Example 376, {2-[4-(Furan-2-carbonyl)-piperazin-1-yl]-4-furan-2-yl-thiazol-5-yl}-pyridin-3-yl-methanone], the inhibition in vivo at 50 mg/kg in the assay with carageenan-induced edema was determined as 33%. For the same molecule, the inhibition at 1 µM in the assay on NF-κB is -14.1%; in the assay on AP-1 it was 45.9%.
On to `O=C(c1ccc(Cl)cc1Cl)c1sc(N2CCN(C(=O)c3ccco3)CC2)nc1-c1ccccc1` [Example 384, (2,4-Dichloro-phenyl)-{2-[4-(furan-2-carbonyl)-piperazin-1-yl]-4-phenyl-thiazol-5-yl}-methanone], for which the inhibition in vivo at 50 mg/kg in the assay with carageenan-induced edema turned out to be 71.6%. For the same molecule, the inhibition at 1 µM in the assay on NF-κB was -1.4%; in the assay with AP-1, 42.5%.
Regarding `O=C(c1cccnc1)c1cc(-c2ccc(Cl)cc2)c(N2CCOCC2)s1` [Example 86, [4-(4-Chloro-phenyl)-5-morpholin-4-yl-thiophen-2-yl]-pyridin-3-yl-methanone], the inhibition in vivo at 50 mg/kg in the assay with carageenan-induced edema came to 28.1%. Also, the inhibition at 1 µM came out at 3.6% in the assay with NF-κB and 15.2% in the assay with AP-1.
In the case of `O=C(c1ccc(Cl)cc1Cl)c1sc(N2CCN(C(=O)c3ccco3)CC2)nc1-c1ccco1` [Example 374, (2,4-Dichloro-phenyl)-{2-[4-(furan-2-carbonyl)-piperazin-1-yl]-4-furan-2-yl-thiazol-5-yl}-methanone], the inhibition in vivo at 50 mg/kg in the assay with carageenan-induced edema came to 62.6%. The inhibition at 1 µM came out at 6.25% with NF-κB and 46.2% with AP-1.
In the same order, the values of `CC(=O)Nc1ccc(-c2cc(C(=O)c3ccccc3)sc2N2CCOCC2)cc1` [Example 66, N-[4-(5-Benzoyl-2-morpholin-4yl-thiophene-3-yl)-phenyl]-acetamide] are 40%, 24.2% and -2.98%.
For the molecule `Cc1c(OCC(F)(F)F)ccnc1-c1sc(N2CCN(C(=O)c3ccco3)CC2)nc1-c1ccccc1` [Example 389, Furan-2-yl-(4-{5-[3-methyl-4-(2,2,2-trifluoro-ethoxy)-pyridin-2-yl]-4-phenyl-thiazol-2-yl}-piperazin-1-yl)-methanone], the inhibition in vivo at 50 mg/kg in the assay on carageenan-induced edema was 61.6%. Moreover, the inhibition at 1 µM was found to be 30.7% with NF-κB and 42.5% in the assay on AP-1.
As for “Dimethyl[carbonyl-bis(4-phenyl-1,3-thiazole-5,2-diyl)]biscarbamate [Example 130]”, in the assay with carageenan-induced edema, the “% Protection P” value turned out to be 40.78%. For the same molecule, the “NFkB inhibition @ 1 uM” value in the assay with NF-κB is 12.78. For the same molecule, the “AP-1 inhibition @ 1 uM” value in the assay on AP-1 turned out to be 9.2.
